Experimental data from article PMC10781097, “Chemical Profile and Health-Promoting Activities of Crataegus laciniata (Rosaceae) Flowers” (Plants, 2023).

Tests used:
[1] = test system: zebrafish embryos; assay: Zebrafish embryo pigmentation (whitening effect); format: in vivo, Danio rerio; conditions: 30 µg/mL, 72 hpf, control = 100% pigmentation
Description: Adult zebrafish specimens (male and female) were maintained in a temperature-controlled aquarium (28.5 °C) with light-dark cycles and regularly fed with Artemia salina larvae. After natural deposition, the laid eggs were collected and incubated at 28.5 °C. After 24 h, all the eggs were observed under a stereomicroscope (SMZ-171 Series, Motic, Hong Kong, China) to select the fertilized ones. The vitality test and whitening effect were evaluated in vivo on zebrafish embryos according to the following method. […] Control embryos were incubated with embryo water (negative control). After 48 h of incubation at 28 °C (72 hpf), the effects of the treatment were observed using a stereomicroscope (SMZ-171 Series, Motic) equipped with a digital camera (Moticam® 5 plus) for image acquisition. The abnormal phenotypes and mortality of each treated group were documented. […] The images were converted to gray scale, and the pixel measurements analyzer program was used to count the area of the zebrafish image pigmentation. The quantification of pigmentation was expressed as a percentage change compared to the control group, which was considered to be 100%. All experiments were performed in compliance with the European Directive 2010/63/EU and following the ethical guidelines described by the National Institute of Health Guide for the Care and Use of Laboratory Animals.

[2] = test system: α-amylase; set-up: method as in PMID 36115306; conditions: cited from earlier work
[3] = test system: TYR; set-up: method as in PMID 30458808, PMID 26059994; conditions: cited from earlier work
[4] = test system: α-glucosidase; conditions: cited from earlier work
[5] = TEAC test (ABTS radical scavenging activity); conditions: mean ± SD, n = 3
Description: The free radical scavenging activities of extracts were also determined via the TEAC test using ABTS radical following the method reported by Wang et al.. […] Trolox was used as a positive control. The percentage of ABTS free radical scavenging activity was calculated using the following formula: Inhibition(%)=(C−S)/C∗100 Data were expressed in terms of the decrease in ABTS scavenging activity by 50%.

[6] = DPPH radical scavenging activity; conditions: mean ± SD, n = 3
Description: DPPH scavenging activity was measured using the method of Xiong et al., albeit with minor modifications. […] After shaking, the mixture was stored in the dark for 30 min at room temperature, and, finally, the absorbance was measured at 517 nm. Ascorbic acid served as the positive control. The percentage of DPPH scavenging activity was calculated using the following formula: Inhibition(%)=(C-S)/C∗100 where C = the absorbance of the control, and S = the absorbance of the extract.

## NC(=S)Nc1ccccc1 [1-Phenyl-2-thiourea (PTU), 1-Phenyl-2-thiourea]
[1]
  embryo pigmentation, % vs. control: 36.00%

## O=c1c(O[C@@H]2O[C@H](CO)[C@H](O)[C@H](O)[C@H]2O)c(-c2ccc(O)c(O)c2)oc2cc(O)cc(O)c12 [hyperoside, Hyperoside]
[2]
  manner of α-amylase inhibition: competitive
[3]
  TYR inhibition: effective TYR inhibitors

## O=c1cc(-c2ccc(O)cc2)oc2c([C@@H]3O[C@H](CO)[C@@H](O)[C@H](O)[C@H]3O)c(O)cc(O)c12 [vitexin, Vitexin]
[3]
  TYR inhibition: effective TYR inhibitors
[4]
  mechanism of action on α-glucosidase: uncompetitive

## Cc1c(C)c2c(c(C)c1O)CCC(C)(C(=O)O)O2 (stereo not shown) [Trolox]
[5]
  TEAC (IC50 µg/mL): 13.08 ± 0.02 µg/mL

## O=C1O[C@H]([C@@H](O)CO)C(O)=C1O [Ascorbic acid]
[6]
  DPPH (IC50 µg/mL): 16.95 ± 1.20 µg/mL
